Like-named read-outs stand apart in the source and are kept apart here.
Tests used:
murine cancer model = conditions: cited from earlier work
[1] = test system: DENV-R2A (Rluc-expressing DENV, serotype 2 strain 16681); conditions: same experimental set-up; cited from earlier work
Huh7.5 cells [2] = test system: Huh7.5 cells; set-up: method as in PMID 34152811; conditions: same experimental set-up; cited from earlier work
[3] = test system: ZIKV-R2A (strain FSS13025); conditions: same experimental set-up; cited from earlier work
[4] = test system: DENV-R2A (Rluc-expressing DENV, serotype 2 strain 16681); test: microbe, parasite or virus in culture; assay type: cell-based, Dengue virus
[5] = test system: ZIKV-R2A (strain FSS13025); test: microbe, parasite or virus in culture; assay type: cell-based; conditions: Zika virus, Huh7.5, 48 h; for activity at 50 µM: read-out: ZIKV-R2A replication (fold DMSO) Mean
DENV2 16681s [6] = test: Infectious viral titer by plaque assay, wild-type DENV2 in Huh7.5 cells; assay type: cell-based, Dengue virus; conditions: 50 μM, MOI 0.1, Huh7.5, 2 days postinfection
ZIKV H/PF/2013 = test: Infectious viral titer by plaque assay, ZIKV in Huh7.5 cells; assay type: cell-based, Zika virus; conditions: 50 μM, MOI 0.1, Huh7.5, 2 days postinfection
WNV NY99 = test: Extracellular infectious titer by plaque assay, WNV in Huh7.5 cells; assay type: cell-based, West Nile virus; conditions: 50 μM, MOI 0.1, Huh7.5, 2 days postinfection
HCV, strain JFH-1 = assay type: cell-based, hepatitis C virus; conditions: 50 μM, JFH-1-Luc, Huh7.5, 2 days
SARS-CoV-2 = assay type: cell-based
MHV-A59 = test: Infectious viral titer by plaque assay, MHV-A59 in DBT cells; assay type: cell-based, mouse hepatitis virus; conditions: 50 μM, MOI 0.0001, 1 day postinfection
DENV-R2A = assay type: cell-based, Dengue virus; conditions: 50 μM
DENV2 16681s [7] = test: Intracellular DENV vRNA (RT-qPCR) and NS4B (western blot) in infected Huh7.5 cells; assay type: cell-based, Dengue virus; conditions: 50 μM, MOI 0.1, Huh7.5, 2 days postinfection
[8] = molecular target: ZIKV NS3/NS4B interaction (Zika virus, UniProt A0A024B7W1); test: Coimmunoprecipitation assay of NS3/NS4B interaction; conditions: unpublished data
ZIKV NS3/NS4B interaction, sequence (A0A024B7W1 1503-2119): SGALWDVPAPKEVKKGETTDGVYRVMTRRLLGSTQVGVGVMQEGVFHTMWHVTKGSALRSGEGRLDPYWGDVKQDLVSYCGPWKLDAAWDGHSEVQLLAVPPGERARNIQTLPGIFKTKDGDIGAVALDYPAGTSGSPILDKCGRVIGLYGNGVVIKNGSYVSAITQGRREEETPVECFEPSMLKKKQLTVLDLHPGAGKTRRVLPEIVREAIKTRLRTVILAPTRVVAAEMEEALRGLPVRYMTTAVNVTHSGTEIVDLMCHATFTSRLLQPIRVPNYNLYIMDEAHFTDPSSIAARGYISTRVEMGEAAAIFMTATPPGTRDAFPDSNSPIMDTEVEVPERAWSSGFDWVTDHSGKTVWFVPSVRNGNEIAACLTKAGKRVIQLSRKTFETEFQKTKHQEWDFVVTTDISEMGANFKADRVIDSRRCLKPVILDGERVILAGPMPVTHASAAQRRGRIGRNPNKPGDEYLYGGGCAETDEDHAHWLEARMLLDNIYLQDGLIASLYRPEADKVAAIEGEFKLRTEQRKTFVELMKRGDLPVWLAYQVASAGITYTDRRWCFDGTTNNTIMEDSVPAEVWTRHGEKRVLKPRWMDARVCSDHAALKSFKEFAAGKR
ZIKV NS3/NS4B interaction, sequence (A0A024B7W1 2270-2520): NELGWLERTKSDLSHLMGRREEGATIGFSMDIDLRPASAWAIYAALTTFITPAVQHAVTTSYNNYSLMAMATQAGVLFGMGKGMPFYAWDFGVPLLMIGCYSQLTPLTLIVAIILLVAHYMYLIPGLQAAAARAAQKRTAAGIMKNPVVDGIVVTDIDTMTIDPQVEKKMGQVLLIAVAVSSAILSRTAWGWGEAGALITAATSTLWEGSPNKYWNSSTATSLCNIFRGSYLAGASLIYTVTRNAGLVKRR

Huh7.5 cells [9] = test: Cell viability, CellTiter-Glo luminescent assay; conditions: for Cell viability (fold DMSO) Mean: deconvolution screen, singletons, 50 µM, uninfected Huh7.5
[10] = test system: DENV vesicle packets (VP); test: Replication-independent vesicle packet induction (pIRO-D) in Huh7/Lunet-T7 cells, TEM, western blot, immunofluorescence; conditions: 50 μM for 12 h, pIRO-D-transfected Huh7/Lunet-T7
[11] = Dengue virus, Huh7.5, 48 h, read-out: DENV-R2A replication (fold DMSO) Mean, deconvolution screen, singletons, 50 µM, Huh7.5, 2 days postinfection

Compound | activity at 50 µM [4, 11] | activity at 50 µM [5] | Cell viability (fold DMSO) Mean (Huh7.5 cells [9]) | further results
NC(=O)c1ccccc1NC(=O)c1ccc(-c2ccccc2)cc1 [N-(2-[aminocarbonyl]phenyl) (1,1′-biphenyl)-4-carboxamide] | – | – | – | efficacy in in vivo murine cancer model (murine cancer model): effective; toxicity in in vivo murine cancer model (murine cancer model): without observable toxicity
COc1cc2c(cc1O)CN(C)C[C@H]2c1ccc(O)cc1 [cherylline] | – | – | – | EC50 [1]: 8.8 µM; CC50 (Huh7.5 cells [2]): > 250 µM; EC50 [3]: 20.3 µM
O=C(Nc1ccccc1)c1cccnc1 [NPP3C, N-phenylpyridine-3-carboxamide] | 2.38% | 27% | – | decrease of viral replication (DENV-R2A) ([4]; 50 μM, Huh7.5, 2 days postinfection, vs DMSO): 55 fold; activity at 50 µM ([4]; Dengue virus, Huh7.5, 48 h, read-out: DENV-R2A replication (Fold DMSO), Table S3, NPP3C analogues, 50 µM, Huh7.5, 2 days postinfection): 1.31%; activity at 50 µM ([4]; Dengue virus, Huh7.5, 48 h, read-out: DENV-R2A replication (fold DMSO), Table 1, NPP3C analogues, 50 μM, Huh7.5, 2 days postinfection): 1%; EC50 ([4]; Dengue virus, Huh7.5, 48 h, read-out: EC50 DENV-R2A): 7.1 µM; EC50 ([5]; read-out: EC50 ZIKV-R2A FSS13025): 15.3 µM; abundance of released virions (plaque assay) (DENV2 16681s [6]): reduced; reduction in ZIKV viral titers (ZIKV H/PF/2013): ~15 fold; decrease of WNV extracellular infectious titers (WNV NY99): 22 fold; impact on HCV replication (HCV, strain JFH-1): did inhibit; anti-SARS-CoV-2 activity (reduction) (SARS-CoV-2): less than 10 fold; impact on MHV replication (MHV-A59): did not impede; inhibitory activity when added after infection (DENV-R2A; added 4 h after infection): retain their full inhibitory activity; inhibitory activity when added after infection (DENV-R2A; added up to 8 h after infection, read 2 days postinfection): retained a strong inhibitory activity; intracellular levels of DENV vRNA and NS4B (DENV2 16681s [7]): decrease; formation and stability of ZIKV NS3/NS4B interaction [8]: do not inhibit; cell viability / cytotoxicity at the used concentration (Huh7.5 cells [9]; 50 μM, Huh7.5): unaffected; levels of viral protein NS3 (western blot) [10]: remained unchanged
Nc1oncc1-c1ccc(Cl)cc1 [FS-2048, Nc1oncc1c2ccc(Cl)cc2] | 57% | 61% | 0.90 fold DMSO | –
NC(=O)NCc1cccc(Cl)c1 [Compound 9M-050, NC(=O)NCc1cccc(Cl)c1] | 100% | 110% | 1.27 fold DMSO | –
Cc1ncccc1C(=O)O [PS-5559, Cc1ncccc1C(=O)O] | 102% | 104% | 0.92 fold DMSO | –
O=C(O)[C@@H](O)c1ccc(Br)cc1 [SS-4660, O[C@H](C(=O)O)c1ccc(Br)cc1] | 104% | 102% | 1.10 fold DMSO | –
Oc1ccc2[nH]ccc2c1 [PS-3277, Oc1ccc2[nH]ccc2c1] | 52% | 74% | 1.23 fold DMSO | –
N#Cc1cccc(O)c1 [PS-5804, Oc1cccc(c1)C#N] | 102% | 115% | 1.16 fold DMSO | –
OCC1CN(Cc2ccccc2)CCO1 (stereo not drawn) [PS-4274, OCC1CN(Cc2ccccc2)CCO1] | 100% | 116% | 1.11 fold DMSO | –
N#CCOc1cccc2ccccc12 [MS-7107, N#CCOc1cccc2ccccc12] | 65% | 84% | 1.01 fold DMSO | –
CC(=O)c1ccccc1-n1ccnc1 [Compound 1B-028, CC(=O)c1ccccc1n2ccnc2] | 59% | 58% | 0.78 fold DMSO | –
CN1CCN(c2ccccc2CN)CC1 [PS-3674, CN1CCN(CC1)c2ccccc2CN] | 60% | 89% | 0.94 fold DMSO | –
Nc1ccccc1N1CCCCC1 [PS-4134, Nc1ccccc1N2CCCCC2] | 111% | 107% | 1.12 fold DMSO | –
Clc1cccn2nnnc12 [PS-5645, Clc1cccn2nnnc12] | 101% | 101% | 0.92 fold DMSO | –
COC(=O)[C@H]1CCC(=O)N1 [AS-7023, COC(=O)[C@H]1CCC(=O)N1] | 102% | 103% | 1.19 fold DMSO | –
NC(=O)c1ccco1 [Compound 2B-052, NC(=O)c1occc1] | 98% | 112% | 1.17 fold DMSO | –
N[C@H]1CC[C@H](O)CC1 [PS-5466, N[C@@H]1CC[C@@H](O)CC1] | 96% | 115% | 0.99 fold DMSO | –
NC(=O)C1CCCNC1 (stereo not drawn) [PS-3699, NC(=O)C1CCCNC1] | 95% | 113% | 0.94 fold DMSO | –
OCc1cc2c(cc1Br)OCO2 [Compound 10P-113, OCc1cc2OCOc2cc1Br] | 86% | 103% | 0.88 fold DMSO | –
Cc1ccnc2ccccc12 [PS-3771, Cc1ccnc2ccccc12] | 101% | 107% | 0.92 fold DMSO | –
COc1ccc2cc[nH]c2n1 [SS-4327, COc1ccc2cc[nH]c2n1] | 98% | 108% | 1.01 fold DMSO | –
CCCC(=O)c1cccs1 [FS-1782, CCCC(=O)c1cccs1] | 104% | 104% | 1.02 fold DMSO | –
Cc1cc(O)nc2ccc(O)cc12 [PS-4921, Cc1cc(O)nc2ccc(O)cc12] | 92% | 83% | 1.00 fold DMSO | –
N#CCC(=O)Nc1ccccc1 [Compound 9B-046, O=C(CC#N)Nc1ccccc1] | 96% | 104% | 1.17 fold DMSO | –
Nc1cnc(Cl)cn1 [PS-5654, Nc1cnc(Cl)cn1] | 97% | 117% | 1.12 fold DMSO | –
CN(C)C(=O)c1ccccc1Br [PS-4942, CN(C)C(=O)c1ccccc1Br] | 107% | 112% | 1.07 fold DMSO | –
O=C(O)Cc1ccc(O)cc1 [PS-5568, OC(=O)Cc1ccc(O)cc1] | 97% | 103% | 0.98 fold DMSO | –

From paper PMC9933715 (Antimicrobial Agents and Chemotherapy, 2023)
